assay: recombinant barcode read abundance after kanamycin selection (control-corrected) (log10(CPM+1)); higher = more efficient recombination; sequences stand for … in AGTGCAGAGAAAATCGGCCAGTTTTCTCTGCCTGCAGTCCGCATGCCGT…AGATTTATGCAGCGGACTGCCTTTCTCCCAAAGTGATAAACCGGACAGTATCATGGACCGGTTTTCCCGGTAATCCGTATTTGCAAGGTTGGTTTCACT; site = the 11-nt target
Outline: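 Pooled oligos, each joining a target to an IS621 bridge RNA target-binding loop, were cloned and co-electroporated with a donor plasmid into E. coli. Selective plates carried chloramphenicol/ampicillin/kanamycin and 0.1 mM IPTG, while chloramphenicol/ampicillin LB agar served as control, with two replicates of each. Recombination efficiency rests on averaged, control-corrected counts per million of barcodes at recombinant junctions, shown as log10(CPM+1).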
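Further: IS621 recombinase and bridge RNA in Escherichia coli cells.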

Row | Sequence | recombinant barcode read abundance (log10)
1 | CTCGCCACTTGGGTTCTAACCTGTTGCCT (site CTCGCCACTAG) | 0.186
2 | CTCGCCACTTGGGTTCTAACCTGTTGCCT (site GAGTTGTCTCC) | 0.0691
3 | CTCGGAGCTTGGGTTCTAACCTGTTGCCG (site CTCGGAGCTCG) | 0.596
4 | CTCGGAGCTTGGGTTCTAACCTGTTGCCG (site CTCGGATCTTG) | 0.47
5 | CTCGGATCTTGGGTTCTAACCTGTTGCCA (site CTCGGAGCTCG) | 0.167
6 | CTCGGATCTTGGGTTCTAACCTGTTGCCA (site CTCGGATCTTG) | 0.0484
7 | CTCGGTACTTGGGTTCTAACCTGTTGCCA (site CTCGGTACTTG) | 0.489
8 | CTCGGTACTTGGGTTCTAACCTGTTGCCA (site CTCGGTTCTAG) | 0.0612
9 | CTCGGTGCTTGGGTTCTAACCTGTTGCCT (site CACGGTCCTAG) | 0.118
10 | CTCGGTGCTTGGGTTCTAACCTGTTGCCT (site CTCGGTGCTAG) | 1.15
11 | CTCGTGTCTTGGGTTCTAACCTGTTGCAG (site CTCGTGTCTCT) | 1.95
12 | CTCGTGTCTTGGGTTCTAACCTGTTGCAG (site CTCTTGTCTCA) | 0.0182
13 | CTCGTGTCTTGGGTTCTAACCTGTTGCAT (site AGAACTACTTG) | 0.00883
14 | CTCGTGTCTTGGGTTCTAACCTGTTGCAT (site CTCGTGTCTAT) | 2.88
15 | CTCTACACTTGGGTTCTAACCTGTTGCCA (site CTCTAAACTTG) | 0.0347
16 | CTCTACACTTGGGTTCTAACCTGTTGCCA (site CTCTACACTTG) | 0.879
17 | CTCTACACTTGGGTTCTAACCTGTTGCCA (site CTCTAGACTTG) | 0.161
18 | CTCTACACTTGGGTTCTAACCTGTTGCCA (site CTCTATACTTG) | 0.0697
19 | CTCTACCCTTGGGTTCTAACCTGTTGCAG (site AGAGCGACTTA) | 0.0772
20 | CTCTACCCTTGGGTTCTAACCTGTTGCAG (site CTCTACCCTCT) | 1.9
21 | CTCTACTCTTGGGTTCTAACCTGTTGCGT (site CTCTACTCTAC) | 0.529
22 | CTCTACTCTTGGGTTCTAACCTGTTGCGT (site TGACCTACTTG) | 0.0348
23 | CTCTAGACTTGGGTTCTAACCTGTTGCCA (site CTCTAAACTTG) | 0.193
24 | CTCTAGACTTGGGTTCTAACCTGTTGCCA (site CTCTACACTTG) | 0.0305
25 | CTCTAGACTTGGGTTCTAACCTGTTGCCA (site CTCTAGACTTG) | 0.69
26 | CTCTAGACTTGGGTTCTAACCTGTTGCCA (site CTCTATACTTG) | 0.0325

Row | Sequence | recombinant barcode read abundance (log10)
27 | CTCTAGCCTTGGGTTCTAACCTGTTGCGT (site CTCTAACCTAC) | 1.38
28 | CTCTAGCCTTGGGTTCTAACCTGTTGCGT (site CTCTACCCTAC) | 0.178
29 | CTCTAGCCTTGGGTTCTAACCTGTTGCGT (site CTCTAGCCTAC) | 1.25
30 | CTCTAGCCTTGGGTTCTAACCTGTTGCGT (site CTCTATCCTAC) | 0.0754
31 | CTCTAGTCTTGGGTTCTAACCTGTTGCCT (site CTCTAGTCTAA) | 0.0156
32 | CTCTAGTCTTGGGTTCTAACCTGTTGCCT (site CTCTAGTCTAC) | 0.792
33 | CTCTAGTCTTGGGTTCTAACCTGTTGCCT (site CTCTAGTCTAG) | 0.154
34 | CTCTAGTCTTGGGTTCTAACCTGTTGCCT (site CTCTAGTCTAT) | 0.526
35 | CTCTATACTTGGGTTCTAACCTGTTGCCA (site CTCTAAACTTG) | 0.0863
36 | CTCTATACTTGGGTTCTAACCTGTTGCCA (site CTCTACACTTG) | 0.102
37 | CTCTATACTTGGGTTCTAACCTGTTGCCA (site CTCTAGACTTG) | 0.511
38 | CTCTATACTTGGGTTCTAACCTGTTGCCA (site CTCTATACTTG) | 0.0112
39 | CTCTATCCTTGGGTTCTAACCTGTTGCGT (site CTCTAACCTAC) | 0.526
40 | CTCTATCCTTGGGTTCTAACCTGTTGCGT (site CTCTACCCTAC) | 0.218
41 | CTCTATCCTTGGGTTCTAACCTGTTGCGT (site CTCTAGCCTAC) | 0.376
42 | CTCTATCCTTGGGTTCTAACCTGTTGCGT (site CTCTATCCTAC) | 0.551
43 | CTCTCGTCTTGGGTTCTAACCTGTTGCGT (site CTCTCGTCTAA) | 0.0993
44 | CTCTCGTCTTGGGTTCTAACCTGTTGCGT (site CTCTCGTCTAC) | 1.19
45 | CTCTCGTCTTGGGTTCTAACCTGTTGCGT (site CTCTCGTCTAG) | 0.291
46 | CTCTCGTCTTGGGTTCTAACCTGTTGCGT (site CTCTCGTCTAT) | 0.0817
47 | CTCTCTCCTTGGGTTCTAACCTGTTGCCT (site CTCTCTCCTAG) | 0.261
48 | CTCTCTCCTTGGGTTCTAACCTGTTGCCT (site CTCTCTTCTAG) | 0.148
49 | CTCTGGACTTGGGTTCTAACCTGTTGCAC (site CTCTGGACTGT) | 0.64
50 | CTCTGGACTTGGGTTCTAACCTGTTGCAC (site CTGTGGACTCT) | 0.058
51 | CTCTGGGCTTGGGTTCTAACCTGTTGCCT (site CTCTAGGCTAG) | 0.179
52 | CTCTGGGCTTGGGTTCTAACCTGTTGCCT (site CTCTCGGCTAG) | 0.29

Row | Sequence | recombinant barcode read abundance (log10)
53 | CTCTGGGCTTGGGTTCTAACCTGTTGCCT (site CTCTGGGCTAG) | 0.15
54 | CTCTGGGCTTGGGTTCTAACCTGTTGCCT (site CTCTTGGCTAG) | 0.198
55 | CTCTTGGCTTGGGTTCTAACCTGTTGCCT (site CTCTAGGCTAG) | 0.261
56 | CTCTTGGCTTGGGTTCTAACCTGTTGCCT (site CTCTCGGCTAG) | 0.139
57 | CTCTTGGCTTGGGTTCTAACCTGTTGCCT (site CTCTGGGCTAG) | 0.0739
58 | CTCTTGGCTTGGGTTCTAACCTGTTGCCT (site CTCTTGGCTAG) | 0.0663
59 | CTCTTGTCTTGGGTTCTAACCTGTTGCCA (site CGCTTGTCTCG) | 0.391
60 | CTCTTGTCTTGGGTTCTAACCTGTTGCCA (site CTCTTGTCTTG) | 0
61 | CTGAGCCCTTGGGTTCTAACCTGTTGCCT (site CTGAGCCCTAG) | 0.6
62 | CTGAGCCCTTGGGTTCTAACCTGTTGCCT (site CTGCGCCCTAG) | 0.448
63 | CTGAGCCCTTGGGTTCTAACCTGTTGCCT (site CTGGGCCCTAG) | 0.354
64 | CTGAGCCCTTGGGTTCTAACCTGTTGCCT (site CTGTGCCCTAG) | 0.0331
65 | CTGAGCCCTTGGGTTCTAACCTGTTGCTG (site CAGAGCCCTCA) | 0.327
66 | CTGAGCCCTTGGGTTCTAACCTGTTGCTG (site CTGAGCCCTCA) | 1.5
67 | CTGCACCCTTGGGTTCTAACCTGTTGCCT (site CGCCACCCTAG) | 0.411
68 | CTGCACCCTTGGGTTCTAACCTGTTGCCT (site CTGCACCCTAG) | 1.57
69 | CTGCTGTCTTGGGTTCTAACCTGTTGCCA (site CTGATGTCTTG) | 0.154
70 | CTGCTGTCTTGGGTTCTAACCTGTTGCCA (site CTGCTGTCTTG) | 0.095
71 | CTGCTGTCTTGGGTTCTAACCTGTTGCCA (site CTGGTGTCTTG) | 0.402
72 | CTGCTGTCTTGGGTTCTAACCTGTTGCCA (site CTGTTGTCTTG) | 0.0953
73 | CTGGATCCTTGGGTTCTAACCTGTTGCCT (site CTCGACCCTAG) | 0.0729
74 | CTGGATCCTTGGGTTCTAACCTGTTGCCT (site CTGGATCCTAG) | 2.25
75 | CTGGGCTCTTGGGTTCTAACCTGTTGCCA (site CTGGGCTCTTG) | 1.14
76 | CTGGGCTCTTGGGTTCTAACCTGTTGCCA (site GTGGGCTCTAG) | 0.282
77 | CTGGGTTCTTGGGTTCTAACCTGTTGCCT (site CAGGGTTCTAG) | 0.0887

Reference: the supplement of paper PMC11208160
